Data as given in the supplement of paper PMC13380429.

Legend:
Conditions in all cases: 72 h
Vero E6 [1] = test: relative viability EC50 (midpoint between 100% and the lowest measured viability); higher = less toxic
U2OS [2] = test: as above
HepG2 [3] = test: as above
Calu-3 [4] = test: as above
Caco-2 [5] = test: as above
Vero E6 [6] = test: drug sensitivity score (DSS) for viability; higher = more toxic; extreme values may be limits of the assay
U2OS [7] = test: as above
HepG2 [8] = test: as above
Calu-3 [9] = test: as above
Caco-2 [10] = test: as above
Vero E6 [11] = test: cell viability relative to DMSO; higher = less toxic
U2OS [12] = test: as above
HepG2 [13] = test: as above
Calu-3 [14] = test: as above
Caco-2 [15] = test: as above

Row | Compound | relative viability EC50 (Vero E6 [1]) | relative viability EC50 (U2OS [2]) | relative viability EC50 (HepG2 [3]) | relative viability EC50 (Calu-3 [4]) | relative viability EC50 (Caco-2 [5]) | drug sensitivity score (Vero E6 [6]) | drug sensitivity score (U2OS [7]) | drug sensitivity score (HepG2 [8]) | drug sensitivity score (Calu-3 [9]) | drug sensitivity score (Caco-2 [10]) | cell viability (Vero E6 [11]; 1 nM) | cell viability (Vero E6 [11]; 10 nM) | cell viability (Vero E6 [11]; 100 nM) | cell viability (Vero E6 [11]; 1000 nM) | cell viability (Vero E6 [11]; 10000 nM) | cell viability (U2OS [12]; 1 nM) | cell viability (U2OS [12]; 10 nM) | cell viability (U2OS [12]; 100 nM) | cell viability (U2OS [12]; 1000 nM) | cell viability (U2OS [12]; 10000 nM) | cell viability (HepG2 [13]; 1 nM) | cell viability (HepG2 [13]; 10 nM) | cell viability (HepG2 [13]; 100 nM) | cell viability (HepG2 [13]; 1000 nM) | cell viability (HepG2 [13]; 10000 nM) | cell viability (Calu-3 [14]; 1 nM) | cell viability (Calu-3 [14]; 10 nM) | cell viability (Calu-3 [14]; 100 nM) | cell viability (Calu-3 [14]; 1000 nM) | cell viability (Calu-3 [14]; 10000 nM) | cell viability (Caco-2 [15]; 1 nM) | cell viability (Caco-2 [15]; 10 nM) | cell viability (Caco-2 [15]; 100 nM) | cell viability (Caco-2 [15]; 1000 nM) | cell viability (Caco-2 [15]; 10000 nM)
1 | OCC(Br)(Br)Br [tribromoethanol] | > 10 µM | > 10 µM | > 10 µM | > 10 µM | > 10 µM | 0 | 0 | 0.5 | 0 | 0 | 106% | 96.3% | 108% | 87.7% | 99.9% | 95.3% | 98.3% | 96.7% | 98.8% | 101% | 99.3% | 102% | 102% | 97% | 85.4% | 91.4% | 95.9% | 98.3% | 106% | 94.2% | 81.4% | 116% | 92.7% | 98.8% | 107%
2 | CC[N+](CC)(CC)CCC(O)(c1ccccc1)C1CCCCC1 (stereo not given) [tridihexethyl] | > 10 µM | > 10 µM | > 10 µM | > 10 µM | > 10 µM | 0 | 0 | 0 | 0 | 0 | 96.4% | 93.6% | 97.2% | 97.6% | 103% | 101% | 94.5% | 97.1% | 106% | 103% | 99.8% | 108% | 92.5% | 89% | 112% | 104% | 104% | 96.9% | 103% | 106% | 100% | 92.8% | 102% | 92.7% | 110%
3 | c1cnc2cc3c(cc2n1)[C@@H]1CNC[C@H]3C1 [varenicline] | > 10 µM | > 10 µM | > 10 µM | > 10 µM | > 10 µM | 0 | 0 | 0 | 0 | 0 | 91% | 99.8% | 91.4% | 98.7% | 104% | 97.5% | 93.5% | 103% | 96.3% | 104% | 97.2% | 88.7% | 90.4% | 95.4% | 101% | 105% | 99.1% | 108% | 98.1% | 105% | 95.4% | 91.9% | 103% | 93.1% | 93.7%
4 | COc1ccc(C(CN(C)C)C2(O)CCCCC2)cc1 (stereo not given) [venlafaxine] | > 10 µM | > 10 µM | > 10 µM | > 10 µM | > 10 µM | 0 | 0 | 0 | 0 | 0.2 | 99.2% | 100% | 84.1% | 92.9% | 101% | 97.1% | 91.5% | 102% | 97.4% | 102% | 108% | 112% | 95.8% | 93.2% | 107% | 104% | 99.9% | 95.6% | 99.9% | 107% | 110% | 87.5% | 125% | 127% | 82%
5 | C=CC(N)CCC(=O)O (stereo not given) [vigabatrin] | > 10 µM | > 10 µM | > 10 µM | > 10 µM | > 10 µM | 0 | 0 | 0 | 0 | 0 | 96.5% | 93.8% | 101% | 88.4% | 97.1% | 95.9% | 103% | 96.8% | 99.4% | 91.7% | 100% | 89.6% | 113% | 96.1% | 104% | 103% | 105% | 99% | 102% | 106% | 93.7% | 96.1% | 101% | 98.1% | 93.2%
6 | CC[C@@H]1C(=O)N(C)c2cnc(Nc3ccc(C(=O)N[C@H]4CC[C@H](N5CCN(CC6CC6)CC5)CC4)cc3OC)nc2N1C(C)C [volasertib] | 0.386 µM | 0.293 µM | 0.081 µM | 1.67 µM | 0.36 µM | 16.3 | 14.7 | 23.2 | 7 | 11.5 | 101% | 98% | 90.6% | 18.3% | 1.5% | 99% | 99.4% | 87.2% | 29.1% | 18.7% | 106% | 104% | 42.7% | 17.6% | 9.1% | 112% | 86.8% | 91.3% | 83.3% | 22.1% | 104% | 93.2% | 74% | 57.8% | 26.7%
7 | COc1cc(C(=O)NS(=O)(=O)c2ccccc2C)ccc1Cc1cn(C)c2ccc(NC(=O)OC3CCCC3)cc12 [zafirlukast] | > 10 µM | > 10 µM | > 10 µM | > 10 µM | > 10 µM | 0 | 0 | 0 | 0 | 0 | 96.2% | 92.5% | 91.2% | 94.2% | 94.6% | 92.7% | 98.4% | 103% | 105% | 100% | 104% | 101% | 109% | 94.6% | 96.6% | 96.9% | 101% | 97.2% | 100% | 110% | 92.3% | 104% | 105% | 97.8% | 99.2%
